Each structure is given as a SMILES string.

The assay concerns C57BL/6 mice. Briefly: animal or person. Format: in vivo. The note with it: Mus musculus, sc, 0.5 h, s.c. administration, 30 min, 55° C. water, read-out: ED50 (mg/kg) at 30 min on C57BL/6 mice in Warm-water Tail-flick Test. Background: Hot-plate and tail-flick tests time the reaction to a heat stimulus.
For `CC(=O)Nc1ccc(CN2CC[C@@](CCc3ccccc3)([C@@H]3C=CCO3)C2)cc1` (single isomer, unassigned) [Compound 258], the ED50 is less than 10 mg/kg.
Under `CC(=O)Nc1ccc(CN2CC[C@@](CCc3ccccc3)([C@H]3C=CCO3)C2)cc1` (single isomer, unassigned) [Compound 259] stands less than 10 mg/kg; under `CC(=O)Nc1ccc(CN2CC[C@](CCc3ccccc3)([C@@H]3C=CCO3)C2)cc1` (single isomer, unassigned) [Compound 260], greater than 10 mg/kg; under `CC(=O)Nc1ccc(CN2CC[C@](CCc3ccccc3)([C@H]3C=CCO3)C2)cc1` (single isomer, unassigned) [Compound 261], greater than 10 mg/kg.
Take `C[C@H](O)[C@]1(CCc2cccs2)CCN(Cc2cccnc2)C1` (single isomer, unassigned) [Compound 422]: the ED50 is less than 10 mg/kg.
Regarding `C[C@H](O)[C@@]1(CCc2cccs2)CCN(Cc2cccnc2)C1` (single isomer, unassigned) [Compound 423], the ED50 was less than 10 mg/kg.
Under `C[C@@H](O)[C@]1(CCc2cccs2)CCN(Cc2cccnc2)C1` (single isomer, unassigned) [Compound 424] stands less than 10 mg/kg.
Under `CCOC(C)[C@@]1(CCc2cccs2)CCN(C(C)(C)c2ccc(C)nc2)C1` (single isomer, unassigned) [Compound 425, 5-(2-((S)-3-((S or R)-1-ethoxyethyl)-3-(2-(thiophen-2-yl)ethyl)pyrrolidin-1-yl)propan-2-yl)-2-methylpyridine] stands less than 10 mg/kg; under `CCOCC1(CCc2cccs2)CCN(Cc2ccc(NC(C)=O)cc2)C1` (stereo in doubt) [Compound 325, (R)-N-(4-((3-(ethoxymethyl)-3-(2-(thiophen-2-yl)ethyl)pyrrolidin-1-yl)methyl)phenyl)acetamide], less than 10 mg/kg.
As for `CC(=O)Nc1ccc(CN2CCC(CCc3ccccc3)(c3ncc[nH]3)CC2)cc1` [Compound 1], the ED50 was greater than 10 mg/kg.
With `CC(=O)Nc1ccc(CN2CCC(CCc3ccccc3)(c3cccs3)CC2)cc1` [Compound 2] the figure was greater than 10 mg/kg; with `CC(=O)Nc1ccc(CN2CCC(CCc3ccccc3)(c3ccsc3)CC2)cc1` [Compound 3], greater than 10 mg/kg; with `CC(=O)Nc1ccc(CN2CCC(CCc3ccccc3)(c3ccccc3)CC2)cc1` [Compound 4], greater than 10 mg/kg.
Consider `CC(=O)Nc1ccc(CN2CCC(CCc3ccccc3)(c3ccccn3)CC2)cc1` [Compound 5], for which the ED50 was less than 10 mg/kg.
As to `CC(=O)Nc1ccc(CN2CCC(CCc3ccccc3)(c3cccnc3)CC2)cc1` [Compound 6], the ED50 is greater than 10 mg/kg.
For `CC(=O)Nc1ccc(CN2CCC(CCc3ccccc3)(c3ccncc3)CC2)cc1` [Compound 7], the ED50 is greater than 10 mg/kg.
Under `CC(=O)Nc1ccc(CN2CCC(CCc3ccccc3)(c3nncs3)CC2)cc1` [Compound 8] stands greater than 10 mg/kg.
As for `CC(=O)Nc1ccc(CN2CCC(CCc3ccccc3)(c3nnco3)CC2)cc1` [Compound 9], the ED50 is greater than 10 mg/kg.
Under `CC(=O)Nc1ccc(CN2CCC(CCc3ccccc3)(c3ncon3)CC2)cc1` [Compound 10] stands greater than 10 mg/kg.
Under `CC(=O)Nc1ccc(CN2CCC(CCc3ccccc3)(c3noc(C)n3)CC2)cc1` [Compound 11] stands greater than 10 mg/kg; under `CC(=O)Nc1ccc(CN2CCC(CCc3ccccc3)(c3nnc(C)o3)CC2)cc1` [Compound 12, N-(4-((4-(5-methyl-1,3,4-oxadiazol-2-yl)-4-phenethylpiperidin-1-yl)methyl)phenyl)acetamide], greater than 10 mg/kg.
As to `CC(=O)Nc1ccc(CN2CCC(CCc3ccccc3)(c3nnc(C)s3)CC2)cc1` [Compound 13, N-(4-((4-(5-methyl-1,3,4-thiadiazol-2-yl)-4-phenethylpiperidin-1-yl)methyl)phenyl)acetamide], the ED50 was greater than 10 mg/kg.
With `CC(=O)Nc1ccc(CN2CCC(Cc3ccccc3)(c3ccccn3)CC2)cc1` [Compound 14, N-(4-((4-benzyl-4-(pyridin-2-yl)piperidin-1-yl)methyl)phenyl)acetamide] the figure was greater than 10 mg/kg.
Turning to `CC(=O)Nc1ccc(CN2CCC(CCCc3ccccc3)(c3ccccn3)CC2)cc1` [Compound 15, N-(4-((4-(3-phenylpropyl)-4-(pyridin-2-yl)piperidin-1-yl)methyl)phenyl)acetamide], the ED50 is greater than 10 mg/kg.
Under `CC(=O)Nc1ccc(CN2CCC(CCc3ccccn3)(c3ccccn3)CC2)cc1` [Compound 16, N-(4-((4-(pyridin-2-yl)-4-(2-(pyridin-2-yl)ethyl)piperidin-1-yl)methyl)phenyl)acetamide] stands greater than 10 mg/kg; under `CC(=O)N(C)c1ccc(CN2CCC(CCc3ccccc3)(c3ccccn3)CC2)cc1` [Compound 17, N-methyl-N-(4-((4-phenethyl-4-(pyridin-2-yl)piperidin-1-yl)methyl)phenyl)acetamide], greater than 10 mg/kg.
With `CC(C)C(=O)Nc1ccc(CN2CCC(CCc3ccccc3)(c3ccccn3)CC2)cc1` [Compound 18, N-(4-((4-phenethyl-4-(pyridin-2-yl)piperidin-1-yl)methyl)phenyl)iso-butyramide] the figure was greater than 10 mg/kg; with `CCC(=O)Nc1ccc(CN2CCC(CCc3ccccc3)(c3ccccn3)CC2)cc1` [Compound 19, N-(4-((4-phenethyl-4-(pyridin-2-yl)piperidin-1-yl)methyl)phenyl)pro-pionamide], greater than 10 mg/kg.
Under `CCCCC(=O)Nc1ccc(CN2CCC(CCc3ccccc3)(c3ccccn3)CC2)cc1` [Compound 20, N-(4-((4-phenethyl-4-(pyridin-2-yl)piperidin-1-yl)methyl)phenyl)pen-tanamide] stands greater than 10 mg/kg; under `CC(C)CCC(=O)Nc1ccc(CN2CCC(CCc3ccccc3)(c3ccccn3)CC2)cc1` [Compound 21, 4-methyl-N-(4-((4-phenethyl-4-(pyridin-2-yl)piperidin-1-yl)methyl)phenyl)pen-tanamide], greater than 10 mg/kg.
`CCOC(=O)Nc1ccc(CN2CCC(CCc3ccccc3)(c3ccccn3)CC2)cc1` [Compound 22, ethyl 4-((4-phenethyl-4-(pyridin-2-yl)piperidin-1-yl)methyl)phenylcarbamate]: the ED50 was greater than 10 mg/kg.
Under `NC(=O)Nc1ccc(CN2CCC(CCc3ccccc3)(c3ccccn3)CC2)cc1` [Compound 23, 1-(4-((4-phenethyl-4-(pyridin-2-yl)piperidin-1-yl)methyl)phenyl)urea] stands greater than 10 mg/kg.
As to `O=C(Nc1ccc(CN2CCC(CCc3ccccc3)(c3ccccn3)CC2)cc1)c1ccccc1` [Compound 24, N-(4-((4-phenethyl-4-(pyridin-2-yl)piperidin-1-yl)methyl)phenyl)benz-amide], the ED50 is greater than 10 mg/kg.
In the case of `CNc1ccc(CN2CCC(CCc3ccccc3)(c3ccccn3)CC2)cc1` [Compound 25, N-methyl-4-((4-phenethyl-4-(pyridin-2-yl)piperidin-1-yl)methyl)aniline], the ED50 is greater than 10 mg/kg.
Consider `c1ccc(CCC2(c3ccccn3)CCN(Cc3ccccc3)CC2)cc1` [Compound 26, 2-(1-benzyl-4-phenethylpiperidin-4-yl)pyridine], for which the ED50 was greater than 10 mg/kg.
As for `COC(=O)C1(CCc2ccccc2)CN(Cc2ccc(NC(C)=O)cc2)C1.Cl` [Compound 27, methyl 1-(4-acetamidobenzyl)-3-phenethylazetidine-3-carboxylate HCl], the ED50 was greater than 10 mg/kg.
With `COC(=O)C1(CCc2ccccc2)CCN(Cc2ccc(NC(C)=O)cc2)C1` (centres unmarked) [Compound 28, methyl 1-(4-acetamidobenzyl)-3-phenethylpyrrolidine-3-carboxylate] the figure was less than 10 mg/kg; with `COC(=O)C1(CCc2ccccc2)CCCN(Cc2ccc(NC(C)=O)cc2)C1` (centres unmarked) [Compound 29, methyl 1-(4-acetamidobenzyl)-3-phenethylpiperidine-3-carboxylate], greater than 10 mg/kg.
Under `CC(=O)Nc1ccc(CN2CCC(CCc3ccccc3)(c3ccccn3)C2)cc1` (centres unmarked) [Compound 30, N-(4-((3-phenethyl-3-(pyridin-2-yl)pyrrolidin-1-yl)methyl)phenyl)acetamide] stands greater than 10 mg/kg; under `CC(=O)Nc1ccc(NN2CCC(CCc3ccccc3)(c3ccccn3)CC2)cc1` [Compound 31, N-(4-(4-phenethyl-4-(pyridin-2-yl)piperidin-1-ylamino)phenyl)acetamide], greater than 10 mg/kg; under `CC(=O)Nc1ccc(CN2CCCC(CCc3ccccc3)(c3ccccn3)C2)cc1` (centres unmarked) [Compound 32, N-(4-((3-phenethyl-3-(pyridin-2-yl)piperidin-1-yl)methyl)phenyl)acetamide], greater than 10 mg/kg.
With `CC(=O)Nc1ccc(CN2CCC(/C=C/c3ccccc3)(c3ccccn3)CC2)cc1` [Compound 33, (E)-N-(4-((4-(pyridin-2-yl)-4-styrylpiperidin-1-yl)methyl)phenyl)acetamide] the figure was greater than 10 mg/kg; with `CC(=O)Nc1ccc(CN2CCC(CCc3ccccc3)(c3nccn3C)CC2)cc1` [Compound 34, N-(4-((4-(1-methyl-1H-imidazol-2-yl)-4-phenethylpiperidin-1-yl)methyl)phenyl)acetamide], greater than 10 mg/kg.
In the case of `CC(=O)NCCCCN1CCC(CCc2ccccc2)(c2ccccn2)CC1` [Compound 35, N-(4-(4-phenethyl-4-(pyridin-2-yl)piperidin-1-yl)butyl)acetamide], the ED50 was greater than 10 mg/kg.
With `CC(=O)NCCN1CCC(CCc2ccccc2)(c2ccccn2)CC1` [Compound 36, N-(2-(4-phenethyl-4-(pyridin-2-yl)piperidin-1-yl)ethyl)acetamide] the figure was greater than 10 mg/kg; with `CC(=O)Nc1ccc(CN2CCC(CCc3ccccc3)(c3cccc(F)n3)CC2)cc1` [Compound 37, N-(4-((4-(6-fluoropyridin-2-yl)-4-phenethylpiperidin-1-yl)methyl)phenyl)acetamide], greater than 10 mg/kg; with `COc1ccc(C2(CCc3ccccc3)CCN(Cc3ccc(NC(C)=O)cc3)CC2)nc1` [Compound 38, N-(4-((4-(5-methoxypyridin-2-yl)-4-phenethylpiperidin-1-yl)methyl)phenyl)acetamide], greater than 10 mg/kg.

(Values after patent publication US11584765B2 (priority 2017, dated 2023).)
